Values quoted from earlier work, collected in patent US6063370A, “Macromolecular complexes for drug delivery” (The Board of Trustees of the University of Illinois, priority 1998, dated 2000).

Details: heparin having an Mw of about 6,000

Bioavailability: 85%
Substance: heparin
